The values that follow come from patent US8058243B2, “Method for treating a brain cancer with ifenprodil” (HSC Research and Development Limited Partnership, priority 2006, dated 2011).

Where a name gives a salt, the structure may show the parent alone. Read-outs that look alike come from different tables or passages of the source.

This assay has as its system murine neural precursor cells (neurosphere cultures). In words: HTS of LOPAC library against secondary neurosphere cultures, MTT proliferation assay at 3 μM, day 7 (z score, P value). The format is cell-based, mouse. (In general: Tetrazolium dyes change colour on reduction, which living cells bring about.)
Where [1] appears, read: LOPAC library screen at 3 μM, secondary neurosphere cultures, MTT.
Setting [2] is: primary LOPAC screen, 3 μM, MTT, neurosphere proliferation.
Where [3] appears, read: yes/no: significantly inhibited neurosphere proliferation in the primary screen.
Where [4] appears, read: LOPAC primary screen, neurosphere MTT proliferation, 3 μM, day 7.
Where [5] appears, read: yes/no: significantly inhibited neurosphere proliferation in primary screen.
Setting [6] is: LOPAC screen, neurosphere MTT proliferation, 3 μM, day 7.
[7] abbreviates: yes/no: significantly inhibited neurosphere proliferation (P<0.01) in primary screen.
Where [8] appears, read: yes = significantly inhibited neurosphere proliferation (P<0.01) in the primary screen.
The mark [9] stands for this setting: LOPAC library screen, 3 μM, MTT, secondary neurosphere cultures, day 7.
[10] abbreviates: LOPAC library screen, 3 μM, MTT, neurosphere cultures.
Where [11] appears, read: yes/no: significantly inhibited neurosphere proliferation (P<0.01) in the primary screen.

In the case of `CN(C)C/C=C(/c1ccc(Br)cc1)c1cccnc1` [Zimelidine dihydrochloride], the “Z Score” value under setting [1] is recorded as −0.649. Under setting [2], this compound had a Z score of −0.649. Further, the Activity entry under setting [3] is recorded as “no”.

`CN(C)CCCN1c2ccccc2CCc2ccc(Cl)cc21` [Clomipramine hydrochloride]: the Activity result is recorded as “no”. Also, under setting [1], the “Z Score” value is on record as −0.8439. Further, the Z score under setting [4] is recorded as −0.844.

As to `N=C1Sc2ccccc2C2=NCCCN12` [PD 404,182], the “Z Score” value was 0.09055. The compound further returned a Z score under setting [4] of 0.091. Moreover, under setting [5], the Activity entry was “no”.

As for `OC[C@H]1O[C@@H](n2cnc3ccccc32)[C@H](O)[C@@H]1O` [D-ribofuranosylbenzimidazole], the “Z Score” value was −2.144. Moreover, under setting [6], the Z score is listed as −2.144. Further, under setting [7], the Activity entry was “no”.

`Cc1c2ccncc2c(C)c2c1[nH]c1ccccc12` [Ellipiticine] had a Z score under setting [4] of −8.321. For the same compound, the Activity entry under setting [8] is reported as “yes”.

As for `O=[N+]([O-])c1cc(O)c(O)c([N+](=O)[O-])c1` [3,5-Dinitrocatechol], the “Z Score” value is given as −0.5294. This compound yielded a Z score under setting [6] of −0.529. Besides, the Activity entry under setting [7] is recorded as “no”.

Take `NCC(O)(CS(=O)(=O)O)c1ccc(Cl)cc1` (stereo not drawn) [2-Hydroxysaclofen]: under setting [9], the “Z Score” value is recorded as −1.624. Also, under setting [4], the Z score is listed as −1.624. Further, the Activity entry under setting [8] was “no”.

For `Nc1ncnc2c1ncn2[C@@H]1O[C@H](COP(=O)(O)CP(=O)(O)OP(=O)([O-])[O-])[C@H](O)C1O.[Li+].[Li+]` (stereo partly drawn), the “Z Score” value under setting [9] is given as −1.29. Also, under setting [4], the Z score is recorded as −1.290. In addition, the Activity entry under setting [8] is “no”.

`O=C1NC(c2cccc([N+](=O)[O-])c2)=CCN1c1ccccc1O` [Icilin]: the “Z Score” value (LOPAC library screen at 3 μM, MTT, secondary neurosphere cultures, screened in singlets) came out at 1.643. The Z score under setting [6] is listed as 1.643. For the same compound, under setting [7], the Activity entry is “no”.

Take `CN(C)CCC(c1ccc(Cl)cc1)c1ccccn1.O=C(O)/C=C\C(=O)O` (stereo not drawn) [(B1)-Chlorpheniramine maleate]: the “Z Score” value is reported as −2.116.

Turning to `CCCC(CCC)C(=O)O.[Na]` [Valproic acid sodium], the “Z Score” value under setting [1] was −0.09493. Also, the Z score under setting [4] was −0.095. For the same compound, under setting [8], the Activity result was “no”.

In the case of `COc1ccc2[nH]c(I)c(CCNC(C)=O)c2c1` [2-Iodomelatonin], the “Z Score” value is recorded as −0.1348. Under setting [4], this compound had a Z score of −0.135. The Activity entry under setting [7] is on record as “no”.

`CCOC(=O)Nc1ccc(NCc2ccc(F)cc2)nc1N` [Flupirtine maleate]: the “Z Score” value under setting [1] was −0.484. Under setting [4], this compound gave a Z score of −0.484. Further, under setting [7], the Activity result is “no”.

With `N=c1ccn2c(n1)O[C@H]1[C@H](O)[C@@H](CO)O[C@H]12` [Ancitabine hydrochloride], the “Z Score” value under setting [9] is on record as −9.951. The compound also yielded a Z score under setting [4] of −9.951. Also, the Activity entry under setting [8] is “yes”.

For `S=C(Nc1ccccc1)Nc1nccs1` [1-Phenyl-3-(2-thiazolyl)-2-thiourea], under “168 h, 3 µM”, the “Z Score” value is 1.208 and the Z score is 1.208. Also, under setting [5], the Activity result is reported as “no”.

trans-(±)-ACPD showed a Z score under setting [2] of 0.315. The Activity result under setting [3] was “no”.

On to `Oc1cccc2c(O)nccc12` [1,5-Isoquinolinediol], for which the “Z Score” value under setting [10] was 0.02674. Further, the Z score under setting [4] came to 0.027. Further, the Activity result under setting [7] is recorded as “no”.

For the compound `C=CC(N)CCC(=O)O` (stereo not drawn) [(B1)-gamma-Vinyl GABA], the “Z Score” value is listed as −0.701.

For the compound `O=C(Nc1cc(C(=O)Nc2ccc(S(=O)(=O)[O-])cc2S(=O)(=O)[O-])cc(C(=O)Nc2ccc(S(=O)(=O)[O-])cc2S(=O)(=O)[O-])c1)Nc1cc(C(=O)Nc2ccc(S(=O)(=O)[O-])cc2S(=O)(=O)[O-])cc(C(=O)Nc2ccc(S(=O)(=O)[O-])cc2S(=O)(=O)[O-])c1.[Na+].[Na+].[Na+].[Na+].[Na+].[Na+].[Na+].[Na+]` [NF449 octasodium salt], the “Z Score” value came to 1.851. The same compound showed a Z score under setting [4] of 1.851. For the same compound, the Activity entry under setting [8] is “no”.

As to `O=S(=O)(c1cccc2c(I)cccc12)N1CCCNCC1` [ML-7], the “Z Score” value is −11.27. Also, the Z score under setting [4] is listed as −11.274. Under setting [11], the Activity result is recorded as “yes”.

As for S-(−)-Eticlopride hydrochloride, the “Z Score” value is −5.158.

Turning to `N=C(N)NC(=O)c1nc(Cl)c(N2CCCCCC2)nc1N` [5-(N,N-hexamethylene)amiloride], the “Z Score” value under setting [10] came to 0.03855. In addition, the Z score under setting [2] stood at 0.039. The Activity result under setting [3] is listed as “no”.

`CC(=O)O.NC(=NCCC[C@H](N)C(=O)O)NO` [NG-Hydroxy-L-arginine acetate]: the “Z Score” value under setting [9] is listed as −10.96. Besides, the Z score under setting [4] is on record as −10.958. Under setting [11], the Activity result was “yes”.

Regarding `CC(COc1ccc(/C=C/c2ccccc2)cc1)[N+](C)(C)C.[I-]` (stereo not drawn), the “Z Score” value was −11.13.

Turning to `CC(C)(Oc1ccc(C2CC2(Cl)Cl)cc1)C(=O)O` (stereo not drawn) [Ciprofibrate], the “Z Score” value under setting [9] was −1.326. In addition, under setting [6], the Z score is −1.326. Moreover, the Activity entry under setting [7] is “no”.

As for `CCC(C)N(C)C(=O)c1cc2ccccc2c(-c2ccccc2Cl)n1` (stereo not drawn) [PK 11195], for the setting “168 h, 3 µM”, the “Z Score” value was −0.4676 and the Z score is −0.468. Under setting [7], the Activity result is “no”.

As to `O=C1CCc2cc(OCCCCc3nnnn3C3CCCCC3)ccc2N1` [Cilostazol], under setting [10], the “Z Score” value is 0.8219. The same compound registered a Z score under setting [6] of 0.822. Further, the Activity result under setting [7] is “no”.

Take `OCCN1CCN(CCCN2c3ccccc3Sc3ccc(Cl)cc32)CC1` [Perphenazine (26), Perphenazine, reference compound]: under setting [9], the “Z Score” value is −11.06. The same compound registered a Z score under setting [4] of −11.065. Under setting [11], the Activity result is reported as “yes”.

With `CN[C@@H]1C[C@@H](c2ccc(Cl)c(Cl)c2)c2ccccc21` [Indatraline hydrochloride], the “Z Score” value was −0.7236. In addition, under setting [4], the Z score was −0.724. The Activity result under setting [7] is recorded as “no”.

Regarding `CC(C)=CCCC(C)=CCCC(C)=CCSc1ccccc1C(=O)O` [Farnesylthiosalicylic acid], under setting [10], the “Z Score” value is recorded as 0.9061. The compound further gave a Z score under setting [4] of 0.906. Under setting [7], the Activity entry is listed as “no”.

For `CC1CN(S(=O)(=O)c2cccc3cnccc23)CCN1.Cl.Cl` (stereo not drawn) [1-(5-Isoquinolinylsulfonyl)-3-methylpiperazine dihydrochloride], for the setting “168 h, 3 µM”, the “Z Score” value amounted to 0.4769 and the Z score is reported as 0.477. Besides, the Activity result under setting [7] was “no”.

As to `CC#CCOC(=O)c1c(C)nc2sc3c(c2c1N)CCC(O)C3` (stereo not drawn) [SB 205384], the “Z Score” value turned out to be 0.7968. Under setting [4], this compound showed a Z score of 0.797. The Activity entry under setting [5] is “no”.

In the case of `Cl.Clc1ccc(N2CCN(Cc3c[nH]c4ncccc34)CC2)cc1` [L-745,870 hydrochloride], the “Z Score” value is −11.27. Moreover, the Z score under setting [4] is given as −11.274.

As for `CC[C@@H](CO)NC(=O)[C@@H]1C=C2c3cccc4c3c(cn4C)C[C@H]2N(C)C1` [Methysergide maleate], the “Z Score” value is −0.01983. The compound also displayed a Z score under setting [4] of −0.020. Besides, the Activity entry under setting [8] is given as “no”.

As for `O=C1NC(=O)C(c2ccccc2)(c2ccccc2)N1` [5,5-Diphenylhydantoin], the “Z Score” value under setting [10] came to 1.383. This compound also returned a Z score under setting [6] of 1.383. Moreover, the Activity result under setting [7] was “no”.

Consider `NC12CC3CC(CC(C3)C1)C2` [Amantadine hydrochloride], for which the “Z Score” value under setting [1] was −0.6531. The same compound returned a Z score under setting [2] of −0.653. Moreover, under setting [3], the Activity result was “no”.

For the compound `CC(C)[C@H](CO)Nc1nc(Nc2cccc(Cl)c2)c2ncn(C(C)C)c2n1` [Purvalanol A], the “Z Score” value under setting [9] is reported as −11.23. The Z score under setting [4] is on record as −11.234. Moreover, the Activity entry under setting [11] is “yes”.

For `CC(=O)O.O=C(NCC1CCCCN1)c1cc(OCC(F)(F)F)ccc1OCC(F)(F)F` (stereo not drawn) [Flecainide acelate], the Activity result is recorded as “no”. The compound also returned a Z score under setting [4] of −1.498.

For the compound `COc1cc2nc(N3CCN(C(=O)C4CCCO4)CC3)nc(N)c2cc1OC` (stereo not drawn) [Terazosin hydrochloride], the Activity entry was “no”. Also, the “Z Score” value under setting [10] is −0.05722. This compound gave a Z score under setting [2] of −0.057.

For `O=C(O)Cc1ccc(O)c(O)c1` [3,4-Dihydroxyphenylacetic acid], the “Z Score” value was −0.5832. The Z score under setting [6] is −0.583. Moreover, under setting [7], the Activity entry was “no”.

For `COc1ccc(Cc2nccc3cc(OC)c(OC)cc23)cc1OC` [Papaverine hydrochloride], the “Z Score” value under setting [1] is −0.2992. The compound also showed a Z score under setting [4] of −0.299. Besides, the Activity entry under setting [5] is “no”.

Consider `COc1ccccc1N1CCN(CCCCN2C(=O)c3ccccc3C2=O)CC1` [NAN-190 hydrobromide], for which, under setting [1], the “Z Score” value is reported as −0.6186. Under setting [4], the Z score is listed as −0.619. Moreover, the Activity entry under setting [8] was “no”.

For the compound `Oc1ccc2c3c1O[C@H]1[C@@H](O)CC[C@@]4(O)[C@@H](C2)N(CC2CCC2)CC[C@]314` [Nalbuphine hydrochloride], the Activity entry is recorded as “no”, the “Z Score” value was 0.07032 and the Z score worked out at 0.070.

On to `C=C[C@H]1C[N@@]2CC[C@H]1C[C@H]2[C@H](O)c1ccnc2ccc(OC)cc12` [Quinine sulfate], for which the “Z Score” value under setting [1] is given as −0.2686. This compound showed a Z score under setting [4] of −0.269. Moreover, under setting [5], the Activity entry is “no”.
